Key:
Acetylcholinesterase = molecular target: T1, Acetylcholinesterase (Bos taurus, UniProt P23795)
T1 sequence (P23795 whole entry): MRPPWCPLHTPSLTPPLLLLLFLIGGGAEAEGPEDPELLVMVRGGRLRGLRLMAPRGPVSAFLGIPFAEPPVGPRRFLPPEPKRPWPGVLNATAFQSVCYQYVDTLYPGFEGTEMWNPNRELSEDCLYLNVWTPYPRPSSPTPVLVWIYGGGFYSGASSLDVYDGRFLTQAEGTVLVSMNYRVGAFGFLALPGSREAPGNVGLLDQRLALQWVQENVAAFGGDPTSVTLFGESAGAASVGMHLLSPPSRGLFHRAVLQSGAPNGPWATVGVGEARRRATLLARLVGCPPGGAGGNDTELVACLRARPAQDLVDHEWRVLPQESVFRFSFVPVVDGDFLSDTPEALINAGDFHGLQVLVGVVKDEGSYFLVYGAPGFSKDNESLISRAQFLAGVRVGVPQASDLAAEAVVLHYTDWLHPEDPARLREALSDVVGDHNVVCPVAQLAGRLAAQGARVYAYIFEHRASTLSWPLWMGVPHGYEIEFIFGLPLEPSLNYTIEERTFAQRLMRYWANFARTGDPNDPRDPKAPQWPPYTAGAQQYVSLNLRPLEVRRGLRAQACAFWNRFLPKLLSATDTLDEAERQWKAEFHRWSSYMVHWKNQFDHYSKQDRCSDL
Description: Inhibition of acetylcholinesterase (AChE) of fetal bovine serum (FBS)

Butyrylcholinesterase = Butyrylcholinesterase (Equus caballus, UniProt Q9N1N9)
Chain of Butyrylcholinesterase (Q9N1N9 whole entry): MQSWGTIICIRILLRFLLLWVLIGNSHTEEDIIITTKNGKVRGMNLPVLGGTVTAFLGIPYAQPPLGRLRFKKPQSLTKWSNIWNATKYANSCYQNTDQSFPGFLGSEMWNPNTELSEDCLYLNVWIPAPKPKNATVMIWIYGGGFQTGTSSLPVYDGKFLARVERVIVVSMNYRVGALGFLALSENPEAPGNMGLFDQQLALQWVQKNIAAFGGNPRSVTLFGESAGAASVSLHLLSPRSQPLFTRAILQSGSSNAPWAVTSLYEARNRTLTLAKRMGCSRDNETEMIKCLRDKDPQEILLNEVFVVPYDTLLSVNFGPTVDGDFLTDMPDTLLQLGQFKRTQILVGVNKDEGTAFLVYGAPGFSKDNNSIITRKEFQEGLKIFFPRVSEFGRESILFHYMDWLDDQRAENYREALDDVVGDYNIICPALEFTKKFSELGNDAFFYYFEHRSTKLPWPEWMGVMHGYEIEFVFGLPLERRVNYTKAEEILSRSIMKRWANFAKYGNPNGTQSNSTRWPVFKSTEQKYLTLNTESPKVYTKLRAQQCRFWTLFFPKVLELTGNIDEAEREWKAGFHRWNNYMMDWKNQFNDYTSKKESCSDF
Description: Inhibition of equine (Eq) Butyrylcholinesterase

Row | Structure (SMILES) | Ki (Acetylcholinesterase) [nM] | Ki (Butyrylcholinesterase) [nM]
1 | Clc1cc(Cl)c2nc3c(c(SCCCCCCCNc4c5c(nc6ccccc46)CCCC5)c2c1)CCCC3 | 290 | 80
2 | c1ccc2c(NCCCCSc3c4c(nc5ccccc35)CCCC4)c3c(nc2c1)CCCC3 | 650 | 40
3 | Clc1cc(Cl)c2c(NCCCCCCCSc3c4c(nc5ccccc35)CCCC4)c3c(nc2c1)CCCC3 | – | 250
4 | c1ccc2c(NCCCCCCCSc3c4c(nc5ccccc35)CCCC4)c3c(nc2c1)CCCC3 | 340 | 35
5 | c1ccc2c(NCCCCCCCNc3c4c(nc5ccccc35)CCCC4)c3c(nc2c1)CCCC3 | – | 2
6 | Nc1c2c(nc3cc(Cl)cc(Cl)c13)CCCC2 | 1 | 50
7 | c1ccc2c(SCCCCCCCSc3c4c(nc5ccccc35)CCCC4)c3c(nc2c1)CCCC3 | > 10000 | 380
8 | Clc1cc(Cl)c2c(SCCCCCCNc3c4c(nc5ccccc35)CCCC4)c3c(nc2c1)CCCC3 | 120 | 45

Source: ChEMBL document CHEMBL1134129, “Novel and potent tacrine-related hetero- and homobivalent ligands for acetylcholinesterase and butyrylcholinesterase” (Bioorg Med Chem Lett, 2001)
